We go through 5 compounds from ChEMBL document CHEMBL1144987, “Synthesis and In vivo anti-inflammatory activity of long-chain 2-amino-alcohols” (2003).

Common to all, as to assay type: functional
The subject of test [1] is Rattus norvegicus. The test can be described thus: Analgesic activity in rats by acetic acid writhing test at a dose of 0.010 mmol/kg. A general note: In writhing tests, fewer writhes than in controls are read as antinociception.
The subject of test [2] is Rattus norvegicus. The test is described as follows: In vivo antiinflammatory activity by rat carrageenan-induced paw edema assay. For orientation: The carrageenan paw model is a standard test of acute inflammation.
In test [3] the test system is Rattus norvegicus. The test can be described thus: Analgesic activity in rats by acetic acid writhing test at a dose of 0.017 mmol/kg.

Structures are written as SMILES.

The term ED50 denotes the dose that gives a 50% effect, or the effect in half of the subjects. Lower therefore signals greater potency. In turn, `CCCCCCCCCCCCOC[C@@H](N)CO.Cl` showed an Analgesic activity in the test with Rattus norvegicus [1] of 95.6%. In the test with Rattus norvegicus [2], this compound showed an ED50 of 10 µmol/kg.
On the same counts, the results for `CCCCCCCC/C=C/CCCCCC[C@H](N)CO.Cl` are 88.1% and 10 µmol/kg.
`CCCCCCCCCCCCCC[C@@H](N)CO.Cl` returned an Analgesic activity in the test with Rattus norvegicus [3] of 72.6%. In addition, in the test on Rattus norvegicus [2], the ED50 is 17 µmol/kg.
Compound `CCCCCCCCCCCCCC[C@H](N)CO.Cl` showed an Analgesic activity in the test with Rattus norvegicus [3] of 89.2%. In the test on Rattus norvegicus [2], this compound gave an ED50 of 17 µmol/kg.
`COc1ccc2c(c1)c(CC(=O)O)c(C)n2C(=O)c1ccc(Cl)cc1` [INDOMETHACIN] displayed an Analgesic activity in the test with Rattus norvegicus [3] of 47%. Besides, in the test on Rattus norvegicus [2], the 50% effect level (ED50) was put at a dose of 11 µmol/kg.
